Test results as given in US9409952B2, “Peptide-compound cyclization method” (Chugai Seiyaku Kabushiki Kaisha, priority 2011, dated 2016).
Where two headings read alike, the source gives them in different places. Starred links: 1 amine or outer side, 2 acyl side, 3 side chain; linkers in the order of their positions; H or OH if unused. Positions of bridges follow the written chain, without caps; N, C: chain ends. Non-standard residues stand in square brackets, D forms with d. Residues, ends and D or L forms follow the SMILES beside them. *: point of attachment. NMePhe(3-Cl) = CN[C@@H](Cc1cccc(Cl)c1)C(=O)O; NMeF = CN[C@@H](Cc1ccccc1)C(=O)O; NMeI = CC[C@H](C)[C@H](NC)C(=O)O; NMeβAla = CN(CCC(=O)[*:2])[*:1]; NMeL = CN[C@@H](CC(C)C)C(=O)O; NMeV = CN[C@H](C(=O)O)C(C)C; NMeS = CN[C@@H](CO)C(=O)O; NMeA = CN[C@@H](C)C(=O)O; Piperidide = C1CCN(*)CC1; dNMeA = CN[C@H](C)C(=O)O; β3hA = C[C@H](N)CC(=O)O; Sar = CNCC(=O)O; tBu = CC(C)(C)*

Legend:
[1] = PAMPA (parallel artificial membrane permeability assay); type: in vitro ADME; details: PAMPA
In short: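 Artificial membrane was 10% (w/v) egg lecithin plus 0.5% (w/v) cholesterol in dodecane on a PVDF filter. A 10 mM DMSO stock was added at 0.5% (v/v) to donor buffer (50 mM MOPSO, pH 6.5, 5.0% glycocholic acid). After 18 h at 37 °C, LC/MS or LC/UV gave donor and acceptor levels for Pe.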

[2] = Metabolic stability in human hepatic microsome; type: in vitro ADME; details: microsomes
[3] = membrane permeation rate (Pe), 50 mM MOPSO buffer pH 6.5 with 5.0% glycocholic acid, 37° C., 18 hours, read-out: iPAMPA Pe
[4] = pH 7.4, human hepatic microsome, NADPH(+), read-out: CL NADPH(+)

SMILES | Papp at 18 hours, 50 µM ([1]; pH 6.5) [nm/s] | microsomal CLint at 1 uM ([2]; human, pH 7.4, CL NADPH(+)) [µL/min/mg] | Papp at 18 hours, 50 µM [1, 3] [nm/s] | microsomal CLint at 1 uM [2, 4] [µL/min/mg]
CC[C@H](C)[C@@H]1NC(=O)[C@H](CC(C)C)N(C)C(=O)[C@H](C(C)C)N(C)C(=O)[C@H](C)NC(=O)[C@H](C)N(C)C(=O)[C@H](Cc2ccccc2)NC(=O)[C@H]([C@@H](C)O)NC(=O)[C@H](CC(C)C)N(C)C(=O)[C@H](CC(C)C)N(C)C(=O)[C@H](C)N(C)C(=O)C[C@@H](C(=O)N2CCCCC2)NC1=O [DP-112] ([NMeA][NMeL][NMeL]TF[NMeA]A[NMeV][NMeL]ID-Piperidide; lactam N-11) | 350 | 49 | – | –
CC(C)C[C@H]1C(=O)N(C)[C@@H](C)C(=O)N[C@@H]([C@@H](C)O)C(=O)N(C)[C@@H](C)C(=O)N(C)[C@@H](C(C)C)C(=O)N[C@@H](COC(C)(C)C)C(=O)N[C@H](C(=O)N2CCCCC2)CC(=O)N(C)CCC(=O)N(C)[C@@H](Cc2ccccc2)C(=O)N[C@@H](C)C(=O)N(C)[C@@H](C)C(=O)N[C@@H](Cc2ccccc2)C(=O)N1C [DP-465] ([NMeβAla][NMeF]A[NMeA]F[NMeL][NMeA]T[NMeA][NMeV]S(tBu)D-Piperidide; lactam N-12) | – | – | 51 | 23
CC[C@H](C)[C@@H]1NC(=O)[C@H](CC(C)C)N(C)C(=O)[C@H](C)NC(=O)CN(C)C(=O)[C@H](Cc2ccccc2)NC(=O)[C@H]([C@@H](C)O)NC(=O)[C@H](CC(C)C)N(C)C(=O)CCN(C)C(=O)C[C@@H](C(=O)N2CCCCC2)NC(=O)[C@H](CC(C)C)N(C)C(=O)[C@H](CC(C)C)N(C)C1=O [DP-413] ([NMeβAla][NMeL]TF[Sar]A[NMeL]I[NMeL][NMeL]D-Piperidide; lactam N-11) | – | – | 290 | 68
CC(C)C[C@H]1C(=O)N(C)[C@@H](Cc2ccccc2)C(=O)N[C@H](C(=O)N2CCCCC2)CC(=O)N(C)[C@@H](C)C(=O)N[C@@H]([C@@H](C)O)C(=O)N(C)CC(=O)N[C@@H](COC(C)(C)C)C(=O)N(C)[C@@H](Cc2ccccc2)C(=O)N1C [DP-710] ([NMeA]T[Sar]S(tBu)[NMeF][NMeL][NMeF]D-Piperidide; lactam N-8) | – | – | 440 | 121
CC(C)C[C@H]1C(=O)N[C@@H]([C@@H](C)O)C(=O)N(C)[C@@H](C)C(=O)N[C@H](C(=O)N(C)[C@@H](Cc2ccccc2)C(=O)N[C@@H](C)C(=O)N2CCCCC2)CC(=O)N(C)[C@H](C)C(=O)N(C)[C@@H](Cc2ccccc2)C(=O)N(C)[C@@H](C)C(=O)N[C@@H](C)C(=O)N(C)[C@@H](C)C(=O)N(C)[C@@H](Cc2ccccc2)C(=O)N1C [DP-353] ([dNMeA][NMeF][NMeA]A[NMeA][NMeF][NMeL]T[NMeA]D[NMeF]A-Piperidide; lactam N-10) | – | – | 160 | 13
CC(C)C[C@H](NC(=O)[C@H](Cc1ccccc1)N(C)C(=O)[C@@H]1CC(=O)N[C@H](C)C(=O)N[C@@H](C(C)C)C(=O)N(C)[C@@H](Cc2ccccc2)C(=O)N(C)[C@@H](CC(C)C)C(=O)N(C)[C@@H](C)C(=O)N[C@@H]([C@@H](C)O)C(=O)N[C@@H](Cc2ccccc2)C(=O)N1)C(=O)N[C@@H](C)C(=O)N1CCCCC1 [DP-658] ([dA]V[NMeF][NMeL][NMeA]TFD[NMeF]LA-Piperidide; lactam N-8) | – | – | 320 | 86
CC[C@H](C)[C@H](NC(=O)[C@H](Cc1cccc(Cl)c1)N(C)C(=O)[C@H](CC(C)C)NC(=O)[C@H](C)N(C)C(=O)[C@H](CC(C)C)N(C)C(=O)[C@@H]1CC(=O)N[C@@H](Cc2ccccc2)C(=O)N(C)[C@@H](Cc2ccccc2)C(=O)N2CCC[C@H]2C(=O)N[C@@H](CC(C)C)C(=O)N(C)[C@@H](Cc2cccc(Cl)c2)C(=O)N[C@@H]([C@@H](C)O)C(=O)N[C@@H](CC(C)C)C(=O)N1)C(=O)N1CCCCC1 [DP-923] (F[NMeF]PL[NMePhe(3-Cl)]TLD[NMeL][NMeA]L[NMePhe(3-Cl)]I-Piperidide; lactam N-8) | 1 | 8 | – | –
CC[C@H](C)[C@H]1C(=O)N[C@@H](C)C(=O)N[C@H](C(=O)N2CCCCC2)CC(=O)N[C@H](C(C)C)C(=O)N[C@@H](Cc2ccccc2)C(=O)N(C)CC(=O)N[C@@H](CC(C)C)C(=O)N[C@@H](Cc2ccccc2)C(=O)N2CCC[C@H]2C(=O)N[C@@H]([C@@H](C)O)C(=O)N[C@@H](COC(C)(C)C)C(=O)N(C)[C@@H](CC(C)C)C(=O)N1C [DP-55] ([dV]F[Sar]LFPTS(tBu)[NMeL][NMeI]AD-Piperidide; lactam N-12) | 210 | 79 | – | –
CC(C)C[C@@H]1NC(=O)[C@H](CO)N(C)C(=O)[C@H](CC(C)C)N(C)C(=O)[C@H](CC(C)C)N(C)C(=O)[C@H](CC(C)C)N(C)C(=O)C[C@H](C)NC(=O)[C@H](C)NC(=O)[C@H](CC(C)C)N(C)C(=O)[C@H](CC(C)C)NC(=O)[C@H](CC(C)C)N(C)C(=O)CN(C)C1=O [DP-644] (cyclo(A[β3hA][NMeL][NMeL][NMeL][NMeS]L[Sar][NMeL]L[NMeL])) | – | – | 330 | 80
CC(C)C[C@H]1C(=O)N[C@@H](C)C(=O)N(C)[C@@H](Cc2ccccc2)C(=O)N(C)[C@@H](C)C(=O)N(C)[C@@H](Cc2ccccc2)C(=O)N[C@@H]([C@@H](C)O)C(=O)N(C)[C@@H](C)C(=O)N[C@H](C(=O)N2CCCCC2)CC(=O)N(C)[C@H](C)C(=O)N(C)[C@@H](C)C(=O)N1C [DP-341] ([dNMeA][NMeA][NMeL]A[NMeF][NMeA][NMeF]T[NMeA]D-Piperidide; lactam N-10) | – | – | 95 | 69
CC[C@H](C)[C@@H]1NC(=O)[C@H](Cc2ccccc2)N(C)C(=O)[C@H](Cc2ccccc2)NC(=O)[C@H](CC(C)C)N(C)C(=O)[C@H](CC(C)C)NC(=O)[C@H](C)NC(=O)C[C@@H](C(=O)N2CCCCC2)NC(=O)[C@H](CC(C)C)NC(=O)[C@H]([C@@H](C)O)NC(=O)[C@@H]2CCCN2C1=O [DP-17] (AL[NMeL]F[NMeF]IPTLD-Piperidide; lactam N-10) | 380 | 94 | – | –
CC(C)C[C@@H](C(=O)N[C@@H](C)C(=O)N1CCCCC1)N(C)C(=O)[C@@H]1CC(=O)N[C@H](C(C)C)C(=O)N[C@@H]([C@@H](C)O)C(=O)N(C)[C@@H](C)C(=O)N(C)[C@@H](Cc2ccccc2)C(=O)N(C)[C@@H](Cc2ccccc2)C(=O)N[C@@H](COC(C)(C)C)C(=O)N(C)[C@@H](CC(C)C)C(=O)NCC(=O)N1 [DP-575] ([dV]T[NMeA][NMeF][NMeF]S(tBu)[NMeL]GD[NMeL]A-Piperidide; lactam N-9) | – | – | 280 | 70
CC[C@H](C)[C@H]1C(=O)N[C@H](C(=O)N2CCCCC2)CC(=O)N[C@H](C(C)C)C(=O)N(C)[C@@H](CC(C)C)C(=O)N(C)[C@@H](Cc2ccccc2)C(=O)N(C)[C@@H](C)C(=O)N[C@@H]([C@@H](C)O)C(=O)N(C)CC(=O)N(C)[C@@H](CC(C)C)C(=O)N[C@@H](COC(C)(C)C)C(=O)N1C [DP-257] ([dV][NMeL][NMeF][NMeA]T[Sar][NMeL]S(tBu)[NMeI]D-Piperidide; lactam N-10) | – | – | 330 | 46
CC[C@H](C)[C@H]1C(=O)N[C@@H](CC(C)C)C(=O)N(C)[C@@H](CC(C)C)C(=O)N[C@H](C(=O)N2CCCCC2)CC(=O)N(C)CC(=O)N(C)[C@@H](CC(C)C)C(=O)N[C@@H]([C@@H](C)O)C(=O)N(C)[C@@H](C)C(=O)N[C@@H](C)C(=O)N(C)[C@@H](Cc2ccccc2)C(=O)N(C)[C@@H](Cc2ccccc2)C(=O)N1C [DP-247] ([Sar][NMeL]T[NMeA]A[NMeF][NMeF][NMeI]L[NMeL]D-Piperidide; lactam N-11) | – | – | 280 | 48
